Test results taken from PMC10641831 (Journal of Medicinal Chemistry, 2023).
“Also recorded” adds a separate entry of the source.

Experiments:
pCREB = test: Immunostaining and confocal microscopy: pCREB activation in HEK293 cells overexpressing V1bR-GFP; assay type: cell-based, human; conditions: 1 nM, 60 min, normalized to negative control; VP 10 nM positive control
Excerpt: (§1) The most promising photoprobe, 12, with a 5.3-fold photoswitch activity window at V1bR, was selected for more comprehensive in vitro experiments to validate its application scope for biological and neurological studies. As a model system, we used HEK293 cells overexpressing GFP-tagged V1bR, where receptor activation via pCREB (phosphorylated cAMP response element binding protein) and V1bR-GFP internalization can be followed through immunostaining and confocal scanning microscopy.
(§2) HEK293 cells stably expressing a C-terminal-conjugated GFP human V1bR were cultured in a full growth medium consisting of DMEM/GlutaMAX (Gibco, Thermo Fisher), containing 0.5 mg/mL G-418 (Gibco, Thermo Fisher), 1 mM sodium pyruvate (Gibco, Thermo Fisher), and 10% fetal bovine serum (Gibco, Thermo Fisher). […]
(§3) Coverslips were first incubated with 5% normal donkey serum (Jackson Immuno Research), 2% bovine serum albumin (Sigma-Aldrich, Merck), and 0.2% Triton X-100 (Sigma-Aldrich, Merck) to block nonspecific protein binding. […] Images were analyzed with ZEN pro (Zeiss) ImageJ 1.52a and collated in CorelDraw 2019. To determine pCREB activation, the fluorescence was normalized to the negative control (cells treated with a serum-free medium without G-418 instead of 12), as already minor receptor interactions can lead to pCREB activity in overexpression systems.

[1] = system: GFP-conjugated human V1bR; test: Immunostaining and confocal microscopy: V1bR-GFP activation/internalization in HEK293 cells; assay type: cell-based; conditions: 1 nM, 60 min
Excerpt: as §1, §2, §3

[2] = target: human oxytocin receptor (human) (UniProt P30559)
Sequence of human oxytocin receptor (human) (P30559 whole entry): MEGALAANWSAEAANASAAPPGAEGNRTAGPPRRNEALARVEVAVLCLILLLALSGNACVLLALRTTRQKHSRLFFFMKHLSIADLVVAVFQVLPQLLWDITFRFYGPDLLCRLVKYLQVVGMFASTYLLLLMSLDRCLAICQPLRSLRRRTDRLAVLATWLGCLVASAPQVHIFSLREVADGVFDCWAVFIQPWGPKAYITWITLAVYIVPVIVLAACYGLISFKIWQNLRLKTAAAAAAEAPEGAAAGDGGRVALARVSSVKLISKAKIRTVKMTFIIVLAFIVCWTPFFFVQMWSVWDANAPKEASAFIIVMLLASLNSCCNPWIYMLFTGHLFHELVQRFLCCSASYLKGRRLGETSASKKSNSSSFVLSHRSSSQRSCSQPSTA

Sequence of Oxytocin (P01178 whole entry, looked up): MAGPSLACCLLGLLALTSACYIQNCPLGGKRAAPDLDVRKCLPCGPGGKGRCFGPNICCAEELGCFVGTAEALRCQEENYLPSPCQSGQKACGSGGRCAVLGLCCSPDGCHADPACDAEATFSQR

| Molecule | pCREB activation (CREB phosphorylation) (pCREB) | V1bR-GFP receptor activation / internalization [1] | Emax (efficacy, reference), IP-One accumulation, HEK293 cells expressing hOTR [2] |
| --- | --- | --- | --- |
| N=C(N)NCCC[C@H](NC(=O)[C@@H]1CCCN1C(=O)[C@@H]1CSSC[C@H](N)C(=O)N[C@@H](Cc2ccc(O)cc2)C(=O)N[C@@H](Cc2ccc(/N=N/c3ccccc3)cc2)C(=O)N[C@@H](CCC(N)=O)C(=O)N[C@@H](CC(N)=O)C(=O)N1)C(=O)NCC(N)=O [E-12] | inactive | did not cause any visible receptor activation or internalization; also recorded: did not induce V1bR-GFP internalization; also recorded: inactive | – |
| N=C(N)NCCC[C@H](NC(=O)[C@@H]1CCCN1C(=O)[C@@H]1CSSC[C@H](N)C(=O)N[C@@H](Cc2ccc(O)cc2)C(=O)N[C@@H](Cc2ccc(/N=N\c3ccccc3)cc2)C(=O)N[C@@H](CCC(N)=O)C(=O)N[C@@H](CC(N)=O)C(=O)N1)C(=O)NCC(N)=O [Z-12] | significantly (P < 0.001) activated pCREB at levels comparable to VP; also recorded: significantly induced CREB phosphorylation | activated V1bR-GFP; also recorded: induced V1bR-GFP internalization | – |
| Oxytocin (from UniProt P01178 20-28) (peptide) | – | – | 100% |
